From publication PMC6944458, “Intracellular and in vivo evaluation of imidazo[2,1-b]thiazole-5-carboxamide anti-tuberculosis compounds” (PLoS ONE, 2020)
pIC50: −log10 of the molar value. ≈ marks a conversion by molar mass, not a printed value. Where two headings read alike, the source gives them in different places.

Legend:
[1] = test system: H37Rv-Mtb; experiment: MIC against replicating H37Rv-Mtb in liquid media; type: cell-based, Mycobacterium tuberculosis; conditions: Mycobacterium tuberculosis, H37RV, 120 h, replicating, 5 days, OD590
[2] = test system: M. tuberculosis strain H37Rv-LUX; experiment: microbe, parasite or virus in culture; type: cell-based; conditions: Mycobacterium tuberculosis, read-out: LORA MIC
[3] = test system: VERO cell line; experiment: Eukaryotic cytotoxicity (CellTiter-Glo); type: cell-based, African green monkey; conditions: Chlorocebus sabaeus, 48 h, 2-day incubation, read-out: VERO Toxicity IC50
Description: Cytotoxicity was tested against the African green monkey adult kidney cell line (VERO, ATCC CRL-1586) as described. Compounds were tested as 10-point, 3-fold serial dilutions in DMSO (final assay concentration of 1% DMSO) and viability was measured using CellTiter-Glo (Promega). Inhibition curves were fitted using the Levenberg–Marquardt algorithm. IC50 was defined as the concentration required to reduce cell viability by 50% after 2-day incubation.

[4] = test system: M. tuberculosis GC1237 (Mtb-GFP) in Raw 264.7 macrophages; experiment: Intracellular mycobacterial replication assay in macrophages; type: cell-based; conditions: Mycobacterium tuberculosis, 120 h, 5 days, read-out: MIC, intracellular M. tuberculosis growth in macrophages
[5] = biological target: T1, CYP2B6 (Homo sapiens, UniProt P20813); experiment: biochemical; type: in vitro ADME; conditions: human liver microsomes; read-out: Cytochrome P450 Inhibition IC50 CYP2B6
T1 construct: human liver microsomes were incubated with a probe substrate for each CYP isoform; from tissue; host or cells: human liver microsomes
T1 sequence (P20813 whole entry, canonical isoform): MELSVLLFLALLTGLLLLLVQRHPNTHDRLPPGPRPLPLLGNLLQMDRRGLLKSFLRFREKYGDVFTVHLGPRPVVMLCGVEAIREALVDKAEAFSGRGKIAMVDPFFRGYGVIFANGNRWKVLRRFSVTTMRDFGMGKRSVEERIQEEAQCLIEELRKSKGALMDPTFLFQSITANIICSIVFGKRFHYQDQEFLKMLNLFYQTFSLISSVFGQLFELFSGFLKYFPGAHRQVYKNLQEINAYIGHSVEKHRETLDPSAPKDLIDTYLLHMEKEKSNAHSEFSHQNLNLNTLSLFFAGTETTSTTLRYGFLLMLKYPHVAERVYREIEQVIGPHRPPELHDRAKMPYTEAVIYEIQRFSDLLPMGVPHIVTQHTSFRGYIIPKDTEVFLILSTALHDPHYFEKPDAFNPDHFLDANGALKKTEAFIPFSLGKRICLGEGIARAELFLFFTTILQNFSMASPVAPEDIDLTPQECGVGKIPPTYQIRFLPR
Description: (§1) Compounds were tested for inhibition of six cytochrome P450 enzyme isoforms—CYP2B6, CYP2C8, CYP2C9, CYP2C19, CYP2D6 and CYP3A4 [27]. For each assay, human liver microsomes were incubated with a probe substrate for each CYP isoform in the presence of compound. Compounds were prepared as a 7-point dilution series in acetonitrile:DMSO (9:1). The final DMSO content in the reaction mixture was equal in all solutions used within an assay and was < 0.2%. Samples were run in duplicate.

[6] = biological target: T2, CYP2C19 (Homo sapiens, UniProt P33261); experiment: biochemical; type: in vitro ADME; conditions: human liver microsomes; read-out: Cytochrome P450 Inhibition IC50 CYP2C19
T2 construct: human liver microsomes were incubated with a probe substrate for each CYP isoform; from tissue; host or cells: human liver microsomes
T2 sequence (P33261 whole entry, canonical isoform): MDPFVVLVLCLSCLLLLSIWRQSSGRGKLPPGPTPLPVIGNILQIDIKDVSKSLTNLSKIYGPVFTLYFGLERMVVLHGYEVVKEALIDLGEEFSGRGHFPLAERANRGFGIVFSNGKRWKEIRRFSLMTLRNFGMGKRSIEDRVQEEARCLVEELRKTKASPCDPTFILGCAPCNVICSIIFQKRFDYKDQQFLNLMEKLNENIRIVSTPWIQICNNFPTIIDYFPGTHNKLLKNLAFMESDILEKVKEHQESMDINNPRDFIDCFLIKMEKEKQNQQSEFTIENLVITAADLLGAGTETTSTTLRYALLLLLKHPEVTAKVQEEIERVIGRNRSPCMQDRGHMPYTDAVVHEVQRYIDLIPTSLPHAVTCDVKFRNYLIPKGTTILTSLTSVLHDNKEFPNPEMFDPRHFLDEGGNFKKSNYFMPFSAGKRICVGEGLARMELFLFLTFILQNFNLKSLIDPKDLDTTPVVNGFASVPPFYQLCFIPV
Description: as §1

[7] = biological target: T3, CYP2C8 (Homo sapiens, UniProt P10632); experiment: biochemical; type: in vitro ADME; conditions: human liver microsomes; read-out: Cytochrome P450 Inhibition IC50 CYP2C8
T3 construct: human liver microsomes were incubated with a probe substrate for each CYP isoform; from tissue; host or cells: human liver microsomes
T3 sequence (P10632 whole entry, canonical isoform): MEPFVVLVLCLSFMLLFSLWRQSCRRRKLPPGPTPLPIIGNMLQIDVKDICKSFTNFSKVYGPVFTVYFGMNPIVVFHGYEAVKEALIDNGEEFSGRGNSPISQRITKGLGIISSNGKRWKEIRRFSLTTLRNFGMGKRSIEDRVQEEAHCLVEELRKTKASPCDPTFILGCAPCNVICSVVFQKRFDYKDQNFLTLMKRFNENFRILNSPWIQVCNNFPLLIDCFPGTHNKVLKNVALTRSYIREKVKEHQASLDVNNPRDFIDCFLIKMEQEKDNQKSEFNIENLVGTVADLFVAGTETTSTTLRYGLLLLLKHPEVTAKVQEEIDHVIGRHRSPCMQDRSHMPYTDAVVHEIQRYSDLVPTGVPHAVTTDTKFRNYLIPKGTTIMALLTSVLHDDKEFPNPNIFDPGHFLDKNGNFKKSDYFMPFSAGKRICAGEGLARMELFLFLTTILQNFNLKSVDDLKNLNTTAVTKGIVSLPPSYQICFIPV
Description: as §1

[8] = biological target: T4, CYP2C9 (Homo sapiens, UniProt P11712); experiment: biochemical; type: in vitro ADME; conditions: human liver microsomes; read-out: Cytochrome P450 Inhibition IC50 CYP2C9
T4 construct: human liver microsomes were incubated with a probe substrate for each CYP isoform; from tissue; host or cells: human liver microsomes
T4 sequence (P11712 whole entry, canonical isoform): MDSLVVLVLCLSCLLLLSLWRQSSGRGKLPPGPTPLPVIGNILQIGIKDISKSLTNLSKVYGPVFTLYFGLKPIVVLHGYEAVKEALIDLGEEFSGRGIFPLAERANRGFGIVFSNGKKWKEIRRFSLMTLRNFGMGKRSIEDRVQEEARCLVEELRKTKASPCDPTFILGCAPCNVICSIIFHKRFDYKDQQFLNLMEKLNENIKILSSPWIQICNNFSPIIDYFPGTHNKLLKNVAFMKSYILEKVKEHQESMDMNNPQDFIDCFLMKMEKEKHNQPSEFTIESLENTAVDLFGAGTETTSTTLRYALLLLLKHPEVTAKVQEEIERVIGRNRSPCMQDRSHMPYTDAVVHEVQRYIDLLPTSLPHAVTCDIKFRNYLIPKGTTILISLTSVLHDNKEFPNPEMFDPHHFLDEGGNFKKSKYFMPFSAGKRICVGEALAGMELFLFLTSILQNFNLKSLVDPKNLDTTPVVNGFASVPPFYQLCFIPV
Description: as §1

[9] = biological target: T5, CYP2D6 (Homo sapiens, UniProt P10635); experiment: biochemical; type: in vitro ADME; conditions: human liver microsomes; read-out: Cytochrome P450 Inhibition IC50 CYP2D6
T5 construct: human liver microsomes were incubated with a probe substrate for each CYP isoform; from tissue; host or cells: human liver microsomes
T5 sequence (P10635 whole entry, canonical isoform): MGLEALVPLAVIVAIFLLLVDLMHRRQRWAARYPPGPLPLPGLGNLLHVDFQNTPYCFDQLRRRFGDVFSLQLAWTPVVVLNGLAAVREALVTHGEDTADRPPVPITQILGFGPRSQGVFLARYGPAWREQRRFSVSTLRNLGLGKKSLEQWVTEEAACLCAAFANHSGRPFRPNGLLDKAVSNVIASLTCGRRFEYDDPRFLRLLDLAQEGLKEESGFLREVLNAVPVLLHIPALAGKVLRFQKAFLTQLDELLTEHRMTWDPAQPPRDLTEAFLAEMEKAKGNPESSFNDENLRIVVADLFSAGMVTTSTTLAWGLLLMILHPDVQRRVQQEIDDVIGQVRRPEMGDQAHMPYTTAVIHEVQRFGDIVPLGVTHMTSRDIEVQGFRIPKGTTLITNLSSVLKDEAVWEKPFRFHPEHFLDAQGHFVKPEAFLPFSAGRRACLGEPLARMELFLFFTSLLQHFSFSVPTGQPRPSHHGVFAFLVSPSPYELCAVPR
Description: as §1

[10] = biological target: T6, CYP3A4 (Homo sapiens, UniProt P08684); experiment: biochemical; type: in vitro ADME
T6 construct: human liver microsomes were incubated with a probe substrate for each CYP isoform; from tissue; host or cells: human liver microsomes
T6 sequence (P08684 whole entry, canonical isoform): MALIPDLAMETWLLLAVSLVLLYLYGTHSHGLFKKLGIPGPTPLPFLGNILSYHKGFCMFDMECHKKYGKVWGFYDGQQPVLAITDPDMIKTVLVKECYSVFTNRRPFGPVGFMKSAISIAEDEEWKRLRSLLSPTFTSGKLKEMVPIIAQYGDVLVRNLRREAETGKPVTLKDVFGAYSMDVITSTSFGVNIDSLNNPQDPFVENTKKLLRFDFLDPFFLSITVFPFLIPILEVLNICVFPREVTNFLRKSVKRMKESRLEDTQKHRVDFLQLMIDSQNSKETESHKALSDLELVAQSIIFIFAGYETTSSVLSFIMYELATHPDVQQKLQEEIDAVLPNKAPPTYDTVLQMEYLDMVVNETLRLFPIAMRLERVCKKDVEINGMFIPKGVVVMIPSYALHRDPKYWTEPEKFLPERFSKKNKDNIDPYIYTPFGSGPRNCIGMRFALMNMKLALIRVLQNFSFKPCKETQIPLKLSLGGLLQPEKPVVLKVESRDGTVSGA
Description: as §1

[11] = test system: CYP2B6, CYP2C8, CYP2C9, CYP2C19, CYP2D6, CYP3A4; experiment: in vitro; type: in vitro ADME; conditions: human; range over isoforms, >10 to >20; read-out: IC50 against all the major cytochrome P450 isoforms
Description: as §1

[12] = in vitro; type: in vitro ADME; conditions: human, s9, NADPH, 37°C
Description: Compounds were tested for microsomal stability using pooled human liver S9 microsomes. Microsomes were incubated with the test compound at 37°C in the presence of the co-factor NADPH. The reaction was terminated, the supernatant recovered, and test compounds quantified by LC-MS/MS. A fixed concentration of test compound was tested in duplicate at 5 timepoints and compound stability was expressed as a function of time. Human liver microsomes were purchased from Celsis (catalog number X008068).

[13] = in vivo; parameters: species or system Balb/c mice
Description: ND-11543 was dissolved in 20% TPGS (d-α tocopheryl polyethylene glycol 1000 succinate) to give a fine white suspension which was dosed at 100, 300 and 500 mg/kg orally on three consecutive days, 3 mice per dose group. Mice were observed 10 min, 1, 2, 4 hr after dosing and then daily afterwards. During the observations, humane handling practices and animal welfare regulations were strictly followed.

[14] = Single dose plasma PK; type: in vivo, Balb/c mice
Description: Basic pharmacokinetic analysis was determined after a single dose of 200 mg/kg with and without the administration of 100 mg/kg of 1-aminobenzotriazole (ABT) (Sigma, #A3940) given 2 hr by gavage prior to ND-11543 administration. ABT (100 mg/kg dose) was administered by oral gavage in 0.5% (w/v) methyl cellulose 400 solution. ND-11543 (200 mg/kg dose) was prepared in 20% TPGS and dosed orally 2 hr after ABT administration. Female mice (6–8 week old Balb/c from Charles River) were rested one to two weeks before dosing. Blood was collected from the mice at time points of 0.5, 2, 4, 8, 12 and 24 hr after drug administration. Blood samples (< 100 μL each) for all time points were collected via the mandibular vein in plasma collector tubes, centrifuged and plasma (< 50 μL each) was frozen until further use. Plasma samples were analyzed by LC/MS to determine drug plasma levels.

[15] = test system: M. tuberculosis Erdman; experiment: Chronic Balb/c model of TB infection; type: in vivo, Balb/c mice; conditions: 200 mg/kg
[16] = test system: murine Raw 264.7 macrophages; conditions: mouse
[17] = in vitro; conditions: human, Caco-2
[18] = Relative solubility by turbidity in microbiological medium; conditions: pH 6.8, aqueous buffer, kinetic from dmso stock, lowest concentration at which compound was insoluble (turbidity)
Description: The relative solubility of compounds was determined in microbiological medium using turbidity as a measure [27]. A serial dilution of compounds was prepared in DMSO and then transferred to microbiological medium at pH 6.8.

Cc1cn2c(C(=O)NCc3ccc(N4CCN(c5ccc(C(F)(F)F)cn5)CC4)c(F)c3)c(C)nc2s1 [ND-11543, N-(3-fluoro-4-(4-(5-(trifluoromethyl)pyridin-2-yl)piperazin-1-yl)benzyl)-2,6-dimethylimidazo[2,1-b]thiazole-5-carboxamide]
MIC [1]: 0.008 µM (≈ 0.00426 µg/mL) | MIC [2]: 1.1 µM (≈ 0.586 µg/mL) | pIC50 [3]: < 4.30 | MIC [4]: 0.0625 µM (≈ 0.0333 µg/mL) | pIC50 [5]: < 4.70 | pIC50 [6]: < 4.70 | pIC50 [7]: 4.74 | pIC50 [8]: 4.99 | pIC50 [9]: < 4.70 | pIC50 ([10]; DDI assay including midazolam, read-out: Cytochrome P450 Inhibition IC50 CYP3A4 (midazolam)): < 4.70 | pIC50 ([10]; DDI assay including tetosterone, read-out: Cytochrome P450 Inhibition IC50 CYP3A4 (tetosterone)): < 4.70 | pIC50 [11]: < 5.00 | microsomal CLint ([12]; read-out: Human liver S9 Microsomes CL): 81.3 µL/min/mg | half-life ([12]; read-out: Human liver S9 Microsomes T ½): 28.4 min | MTD ([13]; female, Balb/c, mouse, in vivo, mice, oral, three consecutive daily doses, read-out: Maximum Tolerated Dose, MTD): > 500 mg/kg | Acute toxicity observation ([13]; mice, 100, 300 and 500 mg/kg oral): No acute toxicity was observed | AUC(0–24)/Dose ([14]; 200 mg/kg oral, without ABT): 58.5 ng·h/mL/mg/kg | Cmax/Dose ([14]; 200 mg/kg oral, without ABT): 3.22 ng/mL/mg/kg | Relative Bioavailability [(TA+ABT) / TA] ([14]; female, Balb/c, mouse, in vivo): 318.25 | half-life ([14]; female, Balb/c, mouse, plasma, 200 mg/kg oral, without ABT): > 1440 min | Log reduction vs Control (Lung) ([15]; 4 weeks, without ABT): 0.30 log10 CFU | Log reduction vs Control (Spleen) ([15]; 4 weeks, without ABT): 0.36 log10 CFU | Lung Log10 CFU ±SEM ([15]; ERDMAN, 672 h): 5.49 ± 0.08 Log10 CFU | Spleen Log10 CFU ±SEM ([15]; ERDMAN, 672 h): 4.64 ± 0.11 Log10 CFU | Macrophage toxicity concentration relative to MIC [16]: 4 and 8-fold higher than their MIC | Papp A→B at 1 h [17]: 0.376 ×10⁻⁶ cm/s | Papp A→B at 2 h [17]: 0.731 ×10⁻⁶ cm/s | Papp B→A at 1 h [17]: 1.09 ×10⁻⁶ cm/s | Papp B→A at 2 h [17]: 0.758 ×10⁻⁶ cm/s | efflux ratio [17]: 2.23 | solubility [18]: 50 µM (≈ 26.6 µg/mL)
